We go through four molecules from US9409857B2 (SHANGHAI RIGHTHAND PHARMTECH. CO., LTD., priority 2012, dated 2016).

In brackets after ≈: the same amount, converted by molar mass. Several values for one entry are separate records, joined by “and”; a condition that tells them apart may be missing. Identical values can stand only once. Like-named read-outs stand apart in the source and are kept apart here.

One series in a line: physchem. The note with it: thermodynamic from solid.
The conditions of series [1]: pH 7.
Series [2] is described as follows: Determination of stability under accelerated testing condition (HPLC total impurities). It counts as physicochemical. The note with it: (40±2)°C, relative humidity (75±5)%, Batch 1-3 on separate table lines. As for the experimental part:
Conditions for chromatogram: octadecyl silane chemically bonded silica was used as a filler; a mixed solution wherein methanol-acetonitrile-phosphate buffer (10 mM/L, pH adjusted to 2.7 with phosphoric acid)=40:20:40 was used as mobile phase; column temperature was 40° C.; detecting wavelength was 220 nm. The purity of each of the products in the above described Example was determined using internal standard method. […] The stability of each of the batches was studied via High Performance Liquid Chromatography (HPLC) and the content percentage of the total related substances (total impurities) was determined in addition to the peaks of Agomelatine and acid radicals.

A short description of series [3]: Determination of water solubility by external standard method.

Consider `COc1ccc2cccc(CCNC(C)=O)c2c1` [Agomelatine crystallographic form II, N-[2-(7-methoxyl-1-naphthyl)ethyl]acetamide], for which the solubility in “physchem” (pH 7, aqueous buffer) is 260 µg/mL (≈ 1070 µM); in “physchem” (simulated gastric fluid), 290 µg/mL (≈ 1190 µM); in “physchem” (water) it was 270 µg/mL (≈ 1110 µM).

Consider `COc1ccc2cccc(CCNC(C)=O)c2c1.CS(=O)(=O)O` [Agomelatine methanesulfonic acid complex], for which the “Agomelatine content (solubility)” value in series [1] came to 320 µg/mL. The “total impurities % (total related substances)” value (from here on “total impurities %”) was 0.21% and 0.22% and 0.24% in series [2] (time 0 month); 0.22% and 0.24% in series [2] (time 1 month); 0.22% and 0.23% and 0.25% in series [2] (time 2 months); 0.23% and 0.25% in series [2] (time 3 months); 0.23% and 0.24% and 0.26% in series [2] (time 6 months).

Consider “Agomelatine benzenesulfonic acid complex”, for which the “total impurities %” value in series [2] (time 0 month) was 0.11% and 0.12% and 0.14%; in series [2] (time 1 month), 0.12% and 0.14%; in series [2] (time 2 months) it was 0.12% and 0.14% and 0.16%; in series [2] (time 3 months), 0.14% and 0.16%; in series [2] (time 6 months) it was 0.14% and 0.15% and 0.17%.

Take Agomelatine sulfuric acid complex: the “Agomelatine content (solubility)” value in series [3] (pH = 7.0 buffer solution) was determined as 330 µg/mL; in series [3] (pury water) it was 340 µg/mL. Moreover, the “total impurities %” value was 0.11% and 0.12% and 0.14% in series [2] (time 0 month); 0.12% and 0.14% in series [2] (time 1 month); 0.12% and 0.13% and 0.15% in series [2] (time 2 months); 0.13% and 0.15% in series [2] (time 3 months); 0.13% and 0.14% and 0.16% in series [2] (time 6 months).
